Our source for the log2fc values is patent US12195490B2, “STRAD-binding agents and uses thereof” (The Regents of the University of California, priority 2020, dated 2025).

Where a name gives a salt, the structure may show the parent alone.

This assay concerns ACHN cell line. The experiment in a line: drug screen of the SelleckChem kinase inhibitor library with and without 5 uM SU-329, Cell-Titer Glo after 5 days. It counts as cell-based. The conditions noted are these: kinase inhibitor at 200 nM with and without 5 uM SU329; ACHN cell line; 5 days; Cell-Titer Glo.
`CO[C@H]1C[C@@H]2CC[C@@H](C)[C@@](O)(O2)C(=O)C(=O)N2CCCC[C@H]2C(=O)O[C@H]([C@H](C)C[C@@H]2CC[C@@H](OC(=O)C(C)(CO)CO)[C@H](OC)C2)CC(=O)[C@H](C)/C=C(\C)[C@@H](O)[C@@H](OC)C(=O)[C@H](C)C[C@H](C)/C=C/C=C/C=C/1C` [Temsirolimus (CCI-779, NSC 683864)] showed a log2fc of −1.524.

Turning to `Cc1c(CN2CCN(C(=O)[C@H](C)O)CC2)sc2c(N3CCOCC3)nc(-c3cnc(N)nc3)nc12` [Apitolisib (GDC-0980, RG7422)], the log2fc is recorded as −0.658.

On to `COc1ccc2cc(-c3nc(-c4ccc([S+](C)[O-])cc4)[nH]c3-c3ccncc3)ccc2c1` (stereo not drawn) [Tie2 kinase inhibitor], for which the log2fc is given as −0.08697.

Take `Cc1c(NC(=O)c2ccc(C(C)(C)C)cc2)cccc1-c1cn(C)c(=O)c(Nc2ccc(C(=O)N3CCOCC3)cc2)n1` [CGI1746]: the log2fc worked out at 0.8939.

For SNS-314 Mesylate, the log2fc was determined as 0.4469.

`O=c1c(O)c(-c2ccc(O)c(O)c2)oc2cc(O)cc(O)c12` [Quercetin] returned a log2fc of −0.449.

`COCCOc1ccc2c(c1)ncn2-c1ccc2cccc(N3CCC(N)CC3)c2n1` [CP-673451]: the log2fc amounted to 0.4234.

In turn, `COc1cc2ncnc(Oc3ccc(CC(=O)Nc4cnn(C(C)C)c4)cc3)c2cc1OC` [AZD2932] came in with a log2fc of 0.4428.

Turning to `N#CC1(c2ccc(NC(=O)c3cccnc3NCc3ccncc3)cc2)CCCC1` [Apatinib], the log2fc came to 0.257.

The molecule `O=C(Nc1cccc(Nc2ncc(Br)c(NCCc3cnc[nH]3)n2)c1)N1CCCC1` [BX-912] displayed a log2fc of −0.4536.

Turning to `CC(C)(C)c1cc(NC(=O)Nc2ccc(-c3cn4c(n3)sc3cc(OCCN5CCOCC5)ccc34)cc2)no1` [Quizartinib (AC220)], the log2fc was 0.278.

`c1cncc(CN2CCC(n3ncc4c(N5CCOCC5)nc(-c5ccc6[nH]ccc6c5)nc43)CC2)c1` [WAY-600]: the log2fc is listed as −1.322.

Regarding `Cc1cc2c(F)c(Oc3ncnn4cc(OC[C@@H](C)OC(=O)[C@H](C)N)c(C)c34)ccc2[nH]1` [Brivanib Alaninate (BMS-582664)], the log2fc is on record as 0.04321.

The molecule `Nc1nc(N)c2nc(-c3cccc(O)c3)c(-c3cccc(O)c3)nc2n1` [TG100-115] returned a log2fc of 0.2334.

`CO[C@@H](C(=O)N1Cc2[nH]nc(NC(=O)c3ccc(N4CCN(C)CC4)cc3)c2C1)c1ccccc1` [Danusertib (PHA-739358)] returned a log2fc of −0.1537.

As for `O=C(Nc1ccc(-c2ccnc(Nc3ccc(N4CCOCC4)cc3)n2)cc1)C1CCCN1` (stereo not drawn) [XL019], the log2fc is reported as −0.1669.

`OCCn1cc(-c2cnc3nnn(Cc4ccc5ncccc5c4)c3n2)cn1` [PF-04217903] gave a log2fc of 0.2177.

Molecule `Cc1cnc(Nc2ccc(OCCN3CCCC3)cc2)nc1Nc1cccc(S(=O)(=O)NC(C)(C)C)c1` [Fedratinib (SAR302503, TG101348)] gave a log2fc of −0.003444.

On to `Cc1ccc(NC(=O)c2cccc(N(C)C)c2)cc1NC(=O)c1ccc(O)cc1` [ZM 336372], for which the log2fc amounted to 0.2177.

In the case of `CS(=O)(=O)CCNCc1ccc(-c2ccc3ncnc(Nc4ccc(OCc5cccc(F)c5)c(Cl)c4)c3c2)o1` [Lapatinib], the log2fc is listed as 0.9499.

For `Cc1nc(Nc2ncc(C(=O)Nc3c(C)cccc3Cl)s2)cc(N2CCN(CCO)CC2)n1` [Dasatinib, dasatinib, reference compound], the log2fc was −0.196.

For the molecule `NC1(Cc2ccc(Cl)cc2)CCN(c2ncnc3[nH]ccc23)CC1` [CCT128930], the log2fc is recorded as −0.2364.

Molecule `C=CC(=O)Nc1cccc(Nc2nc(Nc3ccc(NC4CN(CCF)C4)cc3OC)ncc2C(F)(F)F)c1` [CNX-2006] came in with a log2fc of 0.1218.

Consider `CS(=O)(=O)N1CCN(Cc2cc3nc(-c4cccc5[nH]ncc45)nc(N4CCOCC4)c3s2)CC1` [Pictilisib (GDC-0941)], for which the log2fc is reported as −1.17.

For the molecule `Cc1[nH]c(/C=C2\C(=O)Nc3ccccc32)c(C)c1CCC(=O)O` [Orantinib (TSU-68, SU6668)], the log2fc is listed as −0.2487.

On to `Cc1cc(C(=O)NOCCO)c(Nc2ccc(I)cc2F)n(C)c1=O` [AZD8330], for which the log2fc worked out at 0.5935.

For the molecule `CN1CC[C@H](c2c(O)cc(O)c3c(=O)cc(-c4ccccc4Cl)oc23)[C@H](O)C1` [Flavopiridol HCl], the log2fc is recorded as 1.693.

The molecule `COc1c(C)c(C(=O)c2ccc(N)c(C(=O)[O-])c2)n2ccccc12.[Na+]` [SSR128129E] had a log2fc of 0.3473.

For the molecule `O=C(NOC[C@H](O)CO)c1ccc(F)c(F)c1Nc1ccc(I)cc1F` [PD0325901], the log2fc was 0.3925.

`Cc1cc([C@@H](C)Nc2ccccc2C(=O)O)c2nc(N3CCOCC3)cc(=O)n2c1` [AZD6482] came in with a log2fc of −0.1098.

`CCCCCCCCc1ccc(CCC(N)(CO)CO)cc1.Cl` [Fingolimod (FTY720) HCl] registered a log2fc of 0.7051.

Regarding `Cc1ccc(-c2nn(C(C)(C)C)c3ncnc(N)c23)cc1` [PP1], the log2fc was 0.2956.

`CCOc1cc(C(=O)N2CCC(N3CCN(C)CC3)CC2)ccc1Nc1ncc2c(n1)N(C1CCCC1)c1ccccc1C(=O)N2C` [ERK5-IN-1]: the log2fc was 0.1031.

Turning to `S=C(NCc1ccc2c(c1)OCO2)N1CCN(c2ncnc3c2oc2ccccc23)CC1` [Amuvatinib (MP-470)], the log2fc is on record as −0.2594.

With `N#C/C(=C(/N)Sc1ccc(N)cc1)c1ccccc1C(F)(F)F` [SL-327], the log2fc was −0.2882.

As for `O=C1NC(=O)/C(=C/c2ccc(-c3ccc(F)cc3O)o2)S1` [AS-252424], the log2fc is −0.1563.

The molecule `Cc1ccc(S(=O)(=O)/C=C/C#N)cc1` [BAY 11-7082, reference compound] yielded a log2fc of −0.1258.

With `COc1ncc(-c2ccc3nccc(-c4ccnnc4)c3c2)cc1NS(=O)(=O)c1ccc(F)cc1F` [Omipalisib (GSK2126458, GSK458)], the log2fc stood at 0.5342.

Regarding `O=C(O)c1ccc(Nc2ncc3c(n2)-c2ccc(Cl)cc2C(c2c(F)cccc2F)=NC3)cc1` [MLN8054], the log2fc came to 0.07059.

The molecule `C=CC(=O)Nc1cccc(Oc2nc(Nc3ccc(N4CCN(C)CC4)cc3OC)ncc2Cl)c1` [WZ4002, reference compound] returned a log2fc of −0.07545.

Molecule `Oc1cccc(-c2nc(N3CCOCC3)c3oc4ncccc4c3n2)c1` [PI-103] had a log2fc of −1.021.

Turning to `O=C(NC1CCNCC1)c1n[nH]cc1NC(=O)c1c(Cl)cccc1Cl` [AT7519], the log2fc is listed as −1.085.

As to `CNc1nc(Nc2cn(C(C)(C)C#N)nc2C)ncc1C(F)(F)F` [GNE-0877], the log2fc is reported as 0.3098.

`Cc1nc(Nc2n[nH]c3c2CN(C(=O)N[C@H](CN(C)C)c2ccccc2)C3(C)C)c2sccc2n1` [PF-3758309] returned a log2fc of 0.8283.

In turn, `CC[C@@H]1C(=O)N(C)c2cnc(Nc3ccc(C(=O)NC4CCN(C)CC4)cc3OC)nc2N1C1CCCC1` [BI 2536] yielded a log2fc of 1.415.

In the case of `CC(C)n1nc(-c2cc3cc(O)ccc3[nH]2)c2c(N)ncnc21` [Torkinib (PP242)], the log2fc was −0.3157.

`Cn1cnc(N)c2ncnc1-2` [3-Methyladenine (3-MA)] came in with a log2fc of 0.3232.

Molecule `Oc1ccc(-c2nc(-c3ccc(F)cc3)c(-c3ccncc3)[nH]2)cc1` [SB202190 (FHPI)] yielded a log2fc of −0.3986.
